Key:
Details in all cases: 72 h
HepG2 [1] = assay: relative viability EC50 (midpoint between 100% and the lowest measured viability); higher = less toxic
Calu-3 [2] = assay: drug sensitivity score (DSS) for viability; higher = more toxic; extreme values may be limits of the assay
U2OS [3] = assay: as above
Caco-2 [4] = assay: as above
Vero E6 [5] = assay: as above
HepG2 [6] = assay: as above
Calu-3 [7] = assay: cell viability relative to DMSO; higher = less toxic
U2OS [8] = assay: as above
Caco-2 [9] = assay: as above
Vero E6 [10] = assay: as above
HepG2 [11] = assay: as above
U2OS [12] = assay: relative viability EC50 (midpoint between 100% and the lowest measured viability); higher = less toxic
Vero E6 [13] = assay: as above
Caco-2 [14] = assay: as above

SMILES	relative viability EC50 (HepG2 [1])	drug sensitivity score (Calu-3 [2])	drug sensitivity score (U2OS [3])	drug sensitivity score (Caco-2 [4])	drug sensitivity score (Vero E6 [5])	drug sensitivity score (HepG2 [6])	cell viability (Calu-3 [7]; 1 nM)	cell viability (Calu-3 [7]; 10 nM)	cell viability (Calu-3 [7]; 100 nM)	cell viability (Calu-3 [7]; 1000 nM)	cell viability (Calu-3 [7]; 10000 nM)	cell viability (U2OS [8]; 1 nM)	cell viability (U2OS [8]; 10 nM)	cell viability (U2OS [8]; 100 nM)	cell viability (U2OS [8]; 1000 nM)	cell viability (U2OS [8]; 10000 nM)	cell viability (Caco-2 [9]; 1 nM)	cell viability (Caco-2 [9]; 10 nM)	cell viability (Caco-2 [9]; 100 nM)	cell viability (Caco-2 [9]; 1000 nM)	cell viability (Caco-2 [9]; 10000 nM)	cell viability (Vero E6 [10]; 1 nM)	cell viability (Vero E6 [10]; 10 nM)	cell viability (Vero E6 [10]; 100 nM)	cell viability (Vero E6 [10]; 1000 nM)	cell viability (Vero E6 [10]; 10000 nM)	cell viability (HepG2 [11]; 1 nM)	cell viability (HepG2 [11]; 10 nM)	cell viability (HepG2 [11]; 100 nM)	cell viability (HepG2 [11]; 1000 nM)	cell viability (HepG2 [11]; 10000 nM)	relative viability EC50 (U2OS [12])	relative viability EC50 (Vero E6 [13])	relative viability EC50 (Caco-2 [14])
CCc1cc(-c2[nH]nc(C)c2-c2ccc3c(c2)OCCO3)c(O)cc1O	1680 nM	3.7	1.6	4.1	2.1	8	93.2%	94.6%	101%	89.7%	58.8%	99.2%	94.9%	98.3%	99.7%	65.6%	103%	92%	98%	89.7%	53%	99.4%	104%	101%	95.9%	67.9%	94.7%	91.1%	104%	81.1%	11.1%			
CN[C@@H](C)[C@H](O)c1ccccc1 [ephedrine]			0		0	0																												
COC(=O)N[C@@H](C)CNc1nccc(-c2cn(C(C)C)nc2-c2cc(Cl)cc(NS(C)(=O)=O)c2F)n1 [Encorafenib (LGX818)]	370 nM		1.1	2.4	0.7	14.2						101%	104%	106%	94.2%	82%	103%	89.5%	97%	88.4%	69.5%	106%	106%	109%	116%	71.6%	96.2%	91.7%	79.7%	38.4%	11.1%	> 10000 nM		
CCN(CC)CCOC(=O)C1(c2ccccc2)CCCC1 [caramiphen]		0	0		0	0																												
O=S(=O)(c1cccc2c(O)nccc12)N1CCCNCC1 [hydroxyfasudil]		0	0	0	0	0	91.6%	94.1%	110%	119%	136%	95.4%	101%	96.4%		102%	98.7%	99.3%	94%	107%	109%	95.7%	95.8%	96.4%	90.3%	107%	96.6%	97.7%		97.7%	98.3%			
COC(=O)Nc1nc2cc(C(=O)c3ccccc3)ccc2[nH]1 [mebendazole]	387 nM	3.4	7.3	7	5.9	10.1	81.1%	107%	95%	84.6%	61.3%	95.5%	102%	95.5%	66%	41.2%	91.6%	104%	88.4%	67.2%	55.6%	111%	97.6%	102%	84.7%	35.6%	97.5%	109%	102%	44.3%	40.9%	774 nM	1590 nM	
COC(=O)[C@@H]1CC2=CC(=O)CC[C@]2(C)[C@@]23O[C@@H]2C[C@@]2(C)[C@@H](CC[C@@]24CCC(=O)O4)[C@H]13 [eplerenone]				0	0												98.4%	101%	85.8%	92.8%	98.4%	99.7%	100%	99.1%	101%	95%							> 10000 nM	> 10000 nM
O=C1[O][SbH]23[O]C(=O)C([O]2)C2[O][SbH]4([O]C(=O)C([O]4)C1[O]3)[O]C2=O [antimonyl]	2480 nM		0.5	2.8	0	3.4						95.6%	97.1%	97.6%	96.5%	84.8%	106%	94.7%	99.2%	84.7%	71.5%	98.7%	103%	106%	107%	102%	96.3%	105%	101%	95.7%	48%	> 10000 nM	> 10000 nM	
